Measured values taken from US20150168416A1, “KITS FOR DETECTING AND MONITORING ENDOCRINE DISRUPTING CHEMICALS (EDCs)” (THE UNITED STATES OF AMERICA, as represented by the …, priority 2012, published 2015).
Entries after “also recorded” stand apart in the source; their conditions may differ.

Experiments:
Type in all cases: cell-based
GFP-GR = target: T1, GFP-GR (Rattus norvegicus, UniProt P06536, C656G/D98G); assay: GFP-GR cytoplasm-to-nucleus translocation assay (3617 cells); conditions: hormones 100 nM or known concentrations, water samples 100× unless specified, 30 min
T1 construct: expressed in transfected cells; host or cells: 3617 cells (derivative of the 3134 mouse mammary adenocarcinoma line), tetracycline-repressible promoter
Protocol: (§1) Prior to imaging, cells were grown overnight on 22-mm^2 coverslips in DMEM medium containing 10% charcoal stripped serum (Hyclone, Logan, Utah) without tetracycline (to allow the expression of the GFP-GR or GFP-AR, respectively) at a density of 2×10^5 per 6-well plate. For the automated experiments conducted in 96 or 384 well plates, cell density was 10, 000 or 2,500 cells per well, respectively. Cells were treated with vehicle control, hormones (100 nM) or water samples for 30 min at 37° C. at a final concentration of 100×for water samples (unless otherwise specified). Additional negative controls contained samples that tested the activity of the POCIS membranes themselves.
(§2) Upon treatment, cells were fixed with 4% paraformaldehyde in PBS for 15 minutes and washed three times with PBS. Cells on the 22-mm^2 coverslips were mounted in […]® mounting media with DAPI (Vector Laboratories, Inc.) and examined on a Leica DMRA microscope with Leica 100× 1.3-N.A. oil immersion objective. Images were acquired in green (GFP-GR and GFP-AR) and UV (DAPI) channel with SenSys (Photometrics) camera with KAF1400 chip configured to collect 0.067-μm-diameter pixels. For the automated experiments conducted in 96 or 384 well plates, cells were stained with DRAQ5 (BioStatus Limited) at a dilution of 1:5000 for 15 minutes and after three final washes with PBS were imaged either immediately on the Perkin Elmer Opera Image Screening System or kept in PBS at 4° C. for later imaging.
(§3) A Perkin Elmer Opera Image Screening System was used for fully automated collection of fluorescence images of cells. This system employed a 40×water immersion objective lens, laser illuminated Nipkow disk, and cooled CCD cameras to digitally capture high resolution confocal fluorescence micrographs (300 nm pixel size with 2×2 camera pixel binning). […] The algorithm also measured the mean GFP-GR or GFP-AR intensity in both compartments, and translocation was calculated as a ratio of these intensities. […]

GFP-PR-B (eGFP-hPRB) = target: T2, GFP-PR-B (eGFP-hPRB) (Homo sapiens, UniProt P06401); assay: GFP-PR-B translocation in clonal cell lines; conditions: clones 8122, 8124, 8127, 8130 (four of five tested)
T2 construct: Five mammalian clonal lines expressing the same traceable fusion protein, GFP-PR-B (eGFP-hPRB); expressed in transfected cells
Description: Five mammalian clonal lines expressing the same traceable fusion protein, GFP-PR-B (eGFP-hPRB; SEQ ID NO: 14) were contacted with the indicated levels of progesterone, then assayed essentially as in Example 1 for translocation of the fusion protein into the nucleus from the cytoplasm.

pRevTRE-GFP-mAhR = target: T3, pRevTRE-GFP-mAhR (Mus musculus, UniProt P30561); assay: pRevTRE-GFP-mAhR translocation in mammalian cells
T3 construct: expressed in transfected cells
Description: (§4) Using molecular cloning methods essentially similar to those employed in Example 1, the following additional traceable fusion proteins have been constructed: an aryl hydrocarbon (e.g., dioxin) sensitive fusion protein, pRevTRE-GFP-mAhR (SEQ ID NOs: 9/10); a mineralocorticoid (e.g., aldosterone) sensitive fusion protein, eGFP-ratMR (SEQ ID NOs: 11/12); and a progestin-sensitive fusion protein, eGFP-hPRB (SEQ ID NOs: 13/14).

eGFP-ratMR = target: T4, eGFP-ratMR (Rattus norvegicus, UniProt P22199, A771G/D487G); assay: eGFP-ratMR translocation in mammalian cells
T4 construct: expressed in transfected cells
Description: as §4

GFP-AR = target: T5, GFP-AR (Homo sapiens, UniProt P10275); assay: GFP-AR cytoplasm-to-nucleus translocation assay (3108 cells); conditions: hormones 100 nM or known concentrations, water samples 100× unless specified, 30 min
T5 construct: expressed in transfected cells; host or cells: 3108 cells (derivative of the 3134 mouse mammary adenocarcinoma line), tetracycline-repressible promoter
Protocol: as §1, §2, §3

With CCNc1nc(Cl)nc(NC(C)C)n1 [atrazine] the GFP-GR nuclear translocation (GFP-GR) was “did not induce GFP-GR translocation”.

CC(=O)[C@H]1CC[C@H]2[C@@H]3CCC4=CC(=O)CC[C@]4(C)[C@H]3CC[C@]12C [progesterone] was tested, and the GFP-PR-B translocation (GFP-PR-B (eGFP-hPRB)) was “exhibited the expected translocation; also recorded: positive for translocation”.

For C1=COC=CO1 [dioxin], the pRevTRE-GFP-mAhR translocation (pRevTRE-GFP-mAhR) was “exhibited the expected translocation”.

In the case of C[C@]12CCC(=O)C=C1CC[C@@H]1[C@@H]2[C@@H](O)C[C@]2(C=O)[C@@H](C(=O)CO)CC[C@@H]12 [aldosterone], the eGFP-ratMR translocation (eGFP-ratMR) is reported as “exhibited the expected translocation”.

For C[C@@]12CCC[C@H]1[C@@H]1CC(=O)C3=CC(=O)CC[C@]3(C)[C@H]1CC2 [Androst-4-en-3,6-dione], the GFP-AR nuclear translocation (GFP-AR) was “induced GFP-tagged androgen receptor (GFP-AR) translocation”, the GFP-AR nuclear translocation (GFP-AR; listed as androst-4-en-3,6-dione) was “translocated to the nucleus in concentration-dependent manner; also recorded: induces concentration-dependent translocation” and the GFP-AR nuclear translocation (GFP-AR; listed as androst-4-ene-3,6-dione) was “GFP-AR nuclear translocation”. The GFP-GR nuclear translocation (GFP-GR) was “did not induce GFP-GR translocation”.

With C[C@]12C[C@H](O)[C@H]3[C@@H](CCC4=CC(=O)CC[C@@]43C)[C@@H]1CC[C@@H]2C(=O)CO [corticosterone] the GFP-GR nuclear translocation (GFP-GR) was “translocates to the nucleus in a concentration-dependent manner; also recorded: GFP-GR translocation”.
